Data taken from PubChem BioAssay (NCI).
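Each compound was tested at five concentrations against cells in 96-well plates for 48 hours. At the TGI there is no net growth.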

Experiments:
Experiment in all cases: growth of human tumour cells (NCI), 48 h
[1] = test system: CAKI-1 renal
[2] = test system: HCC-2998 colon
[3] = test system: 786-0 renal
[4] = test system: SK-MEL-2 melanoma
[5] = test system: HCT-116 colon
[6] = test system: SK-MEL-28 melanoma
[7] = test system: U251 CNS
[8] = test system: SF-539 CNS
[9] = test system: HCT-15 colon
[10] = test system: A498 renal
[11] = test system: OVCAR-3 ovarian

O=C(O)C(O)C(O)C(O)C(O)CO (configuration not stated)
TGI [1]: > 100 µM
TGI [2]: > 100 µM
TGI [3]: > 100 µM
TGI [4]: > 100 µM
TGI [5]: > 100 µM
TGI [6]: > 100 µM
TGI [7]: > 100 µM
TGI [8]: > 100 µM
TGI [9]: > 100 µM
TGI [10]: > 100 µM
TGI [11]: > 100 µM

CC(C)(C)c1ccc2c(c1)C#Cc1cc3c(cc1OCCCO2)C#Cc1cc(C(C)(C)C)ccc1OCCCO3
TGI [1]: > 100 µM
TGI [2]: > 100 µM
TGI [3]: > 100 µM
TGI [4]: > 100 µM
TGI [5]: > 100 µM
TGI [6]: > 100 µM
TGI [7]: > 100 µM
TGI [8]: > 100 µM
TGI [9]: 5.92 µM
TGI [10]: > 100 µM
TGI [11]: > 100 µM

COc1cc2c(cc1OCCCN1C(=O)c3cccc4cccc(c34)C1=O)N=C[C@@H]1CCCN1C2=O
TGI [1]: > 58.1 µM
TGI [2]: > 100 µM
TGI [3]: 54.3 µM
TGI [4]: > 100 µM
TGI [5]: > 100 µM
TGI [6]: > 100 µM
TGI [7]: > 100 µM
TGI [8]: > 100 µM
TGI [9]: > 77.9 µM
TGI [10]: > 100 µM
TGI [11]: > 85.1 µM

O=C(CCSC1=NCCCN1)c1ccc(F)cc1
TGI [1]: 46.9 µM
TGI [2]: 36.5 µM
TGI [3]: 14.1 µM
TGI [4]: 36.5 µM
TGI [5]: 39.3 µM
TGI [6]: 34.6 µM
TGI [7]: 44.8 µM
TGI [8]: 35.9 µM
TGI [9]: 36.2 µM
TGI [10]: 44.2 µM
TGI [11]: > 68.2 µM

CCOc1c(OC)cc(-c2nc3n(n2)C(=O)C(CC)S3)cc1OC (configuration not stated)
TGI [1]: > 10 µM
TGI [2]: > 10 µM
TGI [3]: > 10 µM
TGI [4]: > 10 µM
TGI [5]: > 10 µM
TGI [6]: > 10 µM
TGI [7]: > 10 µM
TGI [8]: > 10 µM
TGI [9]: > 10 µM
TGI [10]: > 10 µM
TGI [11]: > 10 µM

CC(C)N1CCN(c2ccc(OCC3COC(Cn4cncn4)(c4ccc(Cl)cc4Cl)O3)cc2)CC1 (configuration not stated)
TGI [1]: 40.3 µM
TGI [2]: 21.1 µM
TGI [3]: 14.5 µM
TGI [4]: 30.5 µM
TGI [5]: 23.4 µM
TGI [6]: 12.3 µM
TGI [7]: 26.7 µM
TGI [8]: 27.3 µM
TGI [9]: 26.5 µM
TGI [10]: 27.4 µM
TGI [11]: 31 µM

O=C1c2cccc3cccc(c23)C(=O)N1CCCNCCCCNCCCNCCCN1C(=O)c2cccc3cccc(c23)C1=O
TGI [1]: 17.3 µM
TGI [2]: 1.86 µM
TGI [3]: 1.36 µM
TGI [4]: 2.75 µM
TGI [5]: 1.57 µM
TGI [6]: 2.95 µM
TGI [7]: 1.73 µM
TGI [8]: 1.94 µM
TGI [9]: 28.1 µM
TGI [10]: 2.47 µM
TGI [11]: 2.12 µM
